# Results taken from article PMC10504053, “First-in-Human PET Imaging of [^18F]SDM-4MP3: A Cautionary Tale” (Molecular Imaging, 2023).
# Tests used:
# [1] = biological target: T1, synaptic vesicle protein 2A (SV2A) (Homo sapiens, UniProt Q7L0J3); test: Human brain PET imaging (SUV, SUVR, 1-TCM VT with arterial input function); assay type: in vivo; conditions: for VT (SE %) from fitting of 1-TCM: human brain PET; for time of peak brain uptake: P1 ([18F]SDM-4MP3) vs P3 ([18F]SynVesT-1); for SUVR: 60-90 min, centrum semiovale reference
# T1 construct: from tissue; host or cells: brain of living human participants (in vivo PET)
# Text: All human components of the study were approved according to the Research Ethics Board for Human Subjects at CAMH (CTA 125, REB 075/2019). All participants were recruited from the community and provided written informed consent. Participant inclusion criteria were self-report of good health. Exclusion criteria included any history of neurological or psychiatric disorder; cognitive impairment according to MoCA assessment (score less than 26); pregnancy and/or nursing; and disorders of coagulation, blood, or ongoing use of anticoagulant medication. Each participant's height, weight, current medications, and smoking status was recorded. Participants abstained from taking […] medications, including aspirin [13], for 24 hours prior to the PET exam (see Table 1).
# Participants were scanned on a 5-ring GE Discovery MI PET/CT (GE Healthcare Technologies, Chicago, Illinois). Participants 1 and 2 (P1 and P2) were scanned with [^18F]SDM-4MP3 (the radiopharmaceutical synthesized from the ABX precursor), and [^18F]SynVesT-1 (synthesized from the Yale precursor) was used for PET imaging of participants 3 and 4 (P3 and P4). A thermoplastic facemask (Tru-Scan Imaging, Annapolis) was used to restrict head motion within the PET scanner bore. CT was used to acquire a scout scan, followed by a low-dose scan for attenuation correction. The radiopharmaceutical (target dose 185 MBq ± 10%, molar activity > 11 GBq/μmol) was delivered starting 30 s after the initiation of the emission scan, with a smooth bolus injection by hand (2-5 s) via intravenous line placed in the antecubital vein, followed by a 10 mL saline flush to clear residual activity from the line. Emission data was acquired for 120-125 min, allowing up to 5 min for a background frame sampled at 1 s intervals to determine the precise starting time of brain uptake, and used to establish the duration of the background frame inserted prior to dynamic frame reconstruction. Data acquired after the start of brain uptake was reconstructed into frames using FORE rebinning and filtered back-projection, using a Hanning filter at the Nyquist frequency to create a dynamic image set. Frame definitions were 30 s × 3, 60 s × 3, 120 s × 2, 300 s × 22 (total = 120 min). For use as a reference for motion correction, images were also reconstructed without attenuation correction using an iterative method with 4 subsets and 6 iterations. All reconstructions were performed using vendor algorithms on the GE DMI console. […] A spatial resolution of approximately 5.8 × 5.8 × 5.6 mm was achieved (measured in accordance with National Electrical Manufacturers Association NU 2-2007 standards). The mean injected activity was 192.7 MBq for [^18F]SDM-4MP3 and 184.3 MBq for [^18F]SynVesT-1 (Table 1).
# (§1) The arterial line was placed into the radial artery by a qualified respiratory therapist. Up to 160 mL of arterial blood was collected via automated blood sampler (ABSS, Comecer PBS-101) and via manual samples for plasma metabolite correction. The ABSS protocol was started ~15 s after emission scan start, and pump speed was set to 300 mL/h, to reduce dispersion in ABSS lines during maximum rate of change of arterial activity concentration, at 1 s sampling period for 5 min and 2 s sampling period for 136 s. Pump speed was decreased to 180 mL/h at a sampling period of 5 s for the following 360 s and a sampling period of 10 s for 540 s, for a total sampling time of 22 min and 16 s. Manual samples were collected at baseline, 2.5, 7, 12, 15, 20, 30, 45, 60, 90, and 110 min relative to emission scan start into PTFE tubes, followed by a saline flush for all except 2.5- and 7-min samples to avoid discontinuities in arterial data during peak uptake.
# (1) Image Registration and Region of Interest. […]
# [2] = Arterial plasma radiometabolite analysis (column-switching HPLC) in human participants; assay type: in vivo; conditions: human arterial plasma parent fraction, compared with [18F]SynVesT-1
# Procedure: as §1, with “Manual samples were collected at baseline, 2.5, 7, 12, 15, 20, 30, 45, 60, 90, and 110 min relative to emission scan start into PTFE tubes, followed by a saline flush for all except 2.5- and 7-min samples to avoid discontinuities in arterial data during peak uptake.” left out
# Baseline whole blood samples were centrifuged at 3100 RPM at room temperature for 5 min to extract plasma. […] Each subsequent manual sample was centrifuged at 3900 rpm at 4°C for 5 min, and 0.3 mL of whole blood and 0.3 mL of plasma were extracted and measured on a gamma counter (Wizard 2480, Perkin Elmer, Turku, Finland) to quantify activity concentration.
# (1) Column-Switching HPLC. […] Samples were initially analyzed in capture mode with the capture solvent flow rate of 1.8 mL/min for 4 min before switching to analysis mode with the analysis solvent running at 1.8 mL/min for an additional 12 min. […]
# [3] = biological target: T2, synaptic vesicle protein 2A (SV2A) (Rattus norvegicus, UniProt Q02563); test: Preclinical PET imaging in rats (whole-brain uptake); assay type: in vivo, Sprague-Dawley rats; conditions: for initial peak uptake in the rodent brain: rat whole-brain time-activity curve
# T2 construct: from tissue; host or cells: brain of living Sprague-Dawley rats (in vivo PET)
# Procedure: Preclinical PET imaging studies were approved by the Animal Care Committee at CAMH (Animal Use Protocol #838). Six adult Sprague-Dawley rats were scanned for 120 min on either a Mediso nanoScan PET/MR 3 T or PET/CT scanner (Budapest, Hungary), and the images were analyzed using VivoQuant® software (version 4.1, Invicro LLC, Needham, MA, USA), as described previously. Five rats (3 M/2F, 528 ± 46 g) were used for the baseline [^18F]SynVesT-1 scans (injected dose: 13.3 ± 3.2 MBq; molar activity: 157 ± 64 GBq/μmol; mass injected: 0.22 ± 0.08 nmol/kg), with two of the male rats also scanned after injection of the blocking drug levetiracetam (cat#L1784, LKT Laboratories Inc, St Paul, MN, USA) at 30 mg/kg (i.v., 15 min before the tracer; injected dose: 10.2 ± 0.1 MBq; molar activity: 78 ± 15 GBq/μmol; injected mass: 0.24 ± 0.04 nmol/kg). One female rat (273 g) was used for the 120 min scan with [^18F]SDM-4MP3 (injected dose: 13.0 MBq; molar activity: 125.5 GBq/μmol; injected mass: 0.38 nmol/kg). Acquired list mode data were sorted into thirty-nine 3-dimensional (3D) (3 × 5 s, 3 × 15 s, 3 × 20 s, 7 × 60 s, 17 × 180 s, and 6 × 600 s) true sinograms (ring difference 84) and reconstructed with a 2D filtered back-projection algorithm with corrections for detector geometry, efficiencies, attenuation, and scatter and dead time and were decay-corrected to the start of acquisition. Static images of the complete emission acquisition (0-120 min) were reconstructed with the manufacturer's proprietary iterative 3D algorithm (6 subsets and 4 iterations). SUVs were calculated by normalizing regional radioactivity for injected radioactivity and body weight.
# SV2A = biological target: SV2A; design: method as in PMID 34722967, PMID 24446373; conditions: affinity to SV2A, in vitro binding; cited from earlier work
# [4] = human brain time-activity curves
# T1 sequence (Q7L0J3 whole entry): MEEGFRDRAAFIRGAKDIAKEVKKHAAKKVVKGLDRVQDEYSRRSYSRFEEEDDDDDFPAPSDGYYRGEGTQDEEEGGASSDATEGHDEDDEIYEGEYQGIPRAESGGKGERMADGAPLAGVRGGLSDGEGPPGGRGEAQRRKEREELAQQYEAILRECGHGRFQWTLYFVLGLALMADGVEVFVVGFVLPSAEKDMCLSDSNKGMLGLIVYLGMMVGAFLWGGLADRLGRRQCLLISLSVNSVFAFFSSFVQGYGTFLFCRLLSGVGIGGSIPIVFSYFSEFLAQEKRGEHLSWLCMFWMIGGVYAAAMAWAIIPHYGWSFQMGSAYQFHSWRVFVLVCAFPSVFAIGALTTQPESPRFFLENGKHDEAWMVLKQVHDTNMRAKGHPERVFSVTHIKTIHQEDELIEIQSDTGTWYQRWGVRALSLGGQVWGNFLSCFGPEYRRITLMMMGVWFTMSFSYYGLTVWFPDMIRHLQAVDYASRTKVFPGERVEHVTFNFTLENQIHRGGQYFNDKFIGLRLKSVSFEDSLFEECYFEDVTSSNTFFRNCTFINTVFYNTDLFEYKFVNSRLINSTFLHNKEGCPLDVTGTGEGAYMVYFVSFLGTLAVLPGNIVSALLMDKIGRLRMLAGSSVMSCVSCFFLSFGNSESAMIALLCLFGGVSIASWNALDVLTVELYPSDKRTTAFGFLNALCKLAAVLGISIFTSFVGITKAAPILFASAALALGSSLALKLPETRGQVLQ
# T2 sequence (Q02563 whole entry): as the sequence (Q7L0J3 whole entry) above, with D53E, S62A, T71A, E144D, A154T, G440S, S482A, I572V, M634L counted along it
structure (smiles),measurement,setting,value
Cc1ccncc1CN1C[C@@H](c2cc(F)cc([18F])c2)CC1=O [[^18F]SDM-4MP3],VT (SE %) from fitting of 1-TCM,"[1]; Centrum semiovale, participant P1",1.6 (1.8%)
same,VT (SE %) from fitting of 1-TCM,"[1]; Centrum semiovale, participant P2",1.7 (2.0%)
same,VT (SE %) from fitting of 1-TCM,"[1]; Cerebellum, participant P1",1.6 (1.4%)
same,VT (SE %) from fitting of 1-TCM,"[1]; Frontal cortex, participant P1",1.8 (1.6%)
same,VT (SE %) from fitting of 1-TCM,"[1]; Frontal cortex, participant P2",1.9 (3.4%)
same,VT (SE %) from fitting of 1-TCM,"[1]; Hippocampus, participant P1",1.8 (1.4%)
same,VT (SE %) from fitting of 1-TCM,"[1]; Hippocampus, participant P2",1.8 (3.4%)
same,VT (SE %) from fitting of 1-TCM,"[1]; Putamen, participant P1",2.0 (1.3%)
same,VT (SE %) from fitting of 1-TCM,"[1]; Putamen, participant P2",2.1 (3.4%)
same,initial brain penetration (SUV),"[1]; human brain time-activity curves, P1",~ 7 SUV
same,clearance from brain,"[1]; human brain time-activity curves, in contrast to [18F]SynVesT-1",rapid clearance from brain
same,time of peak brain uptake,[1]; [4],2.5 min
same,factor by which VT estimates were lower than expected,"[1]; human, one-tissue compartment model, vs expected for [18F]SynVesT-1",> 10
same,SUVR,"[1]; throughout the brain, human",under 2
same,rate of radiometabolism,[2],slightly slower
same,initial peak uptake in the rodent brain,[3]; baseline,3.2 SUV
same,brain uptake in 0-120 min static image,"[3]; rat, barely above tissues outside of the brain",very limited brain uptake
same,whole-brain TAC clearance,"[3]; rat, vs. [18F]SynVesT-1",much faster clearance
same,brain uptake relative to blocked [18F]SynVesT-1 scans,"[3]; rat, comparator scans after levetiracetam 30 mg/kg i.v. 15 min before tracer",lower than [^18F]SynVesT-1 scans performed under preblocking conditions with levetiracetam
Cc1ccncc1CN1CC(c2cc(F)cc(F)c2)CC1=O (centres unmarked) [SDM-4MP3],Ki,SV2A,291 nM
"Cc1cnccc1CN1C[C@@H](c2cc(F)cc([18F])c2)CC1=O [[^18F]SynVesT-1, reference compound]",VT (SE %) from fitting of 1-TCM,"[1]; Centrum semiovale, participant P3",2.9 (1.4%)
same,VT (SE %) from fitting of 1-TCM,"[1]; Centrum semiovale, participant P4",3.5 (7.7%)
same,VT (SE %) from fitting of 1-TCM,"[1]; Cerebellum, participant P3",13.1 (0.7%)
same,VT (SE %) from fitting of 1-TCM,"[1]; Cerebellum, participant P4",16.3 (4.9%)
same,VT (SE %) from fitting of 1-TCM,"[1]; Frontal cortex, participant P3",15.4 (0.4%)
same,VT (SE %) from fitting of 1-TCM,"[1]; Frontal cortex, participant P4",18.3 (5.1%)
same,VT (SE %) from fitting of 1-TCM,"[1]; Hippocampus, participant P3",14.9 (0.6%)
same,VT (SE %) from fitting of 1-TCM,"[1]; Hippocampus, participant P4",17.0 (6.2%)
same,VT (SE %) from fitting of 1-TCM,"[1]; Putamen, participant P3",16.1 (0.5%)
same,VT (SE %) from fitting of 1-TCM,"[1]; Putamen, participant P4",22.23 (4.7%)
same,SUVR,"[1]; cortical regions, human",greater than 7
same,time of peak brain uptake,[1]; [4],20 min
same,initial peak uptake in the rodent brain,[3]; baseline,7.6 ± 0.7 SUV
same,brain uptake SUVs in static image,"[3]; rat, 0-120 min static image, baseline",~8 SUV
Cc1cnccc1CN1C[C@@H](c2cc(F)cc(F)c2)CC1=O [SynVesT-1],Ki,SV2A,3.1 nM
